Among the test systems are SF-268 CNS; NCI/ADR-RES ovarian; SK-OV-3 ovarian; SK-MEL-2 melanoma; LOX IMVI melanoma; RXF 393 renal; NCI-H23 lung; K-562 leukemia; HT29 colon; OVCAR-8 ovarian.
Experiment in all cases: NCI tumour cell line growth inhibition, 48 h

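These data come from cells grown in 96-well plates and exposed to compound for 48 hours at five concentrations. Here, GI50 denotes the concentration required for 50% inhibition of growth. TGI: concentration producing complete growth inhibition.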

On to `COC1OC2COC(c3ccccc3)OC2C(OC(=S)c2ccccc2)C1O` (stereo not given), for which the TGI in the experiment with SF-268 CNS is greater than 100 µM; with NCI/ADR-RES ovarian, 79 µM; in the experiment with SK-OV-3 ovarian, 58.2 µM; in the experiment on SK-MEL-2 melanoma, greater than 100 µM; in the experiment on LOX IMVI melanoma, 20.5 µM; in the experiment on RXF 393 renal, 36.9 µM. Further, the TGI was greater than 100 µM with NCI-H23 lung, greater than 100 µM with K-562 leukemia, greater than 100 µM in the experiment on HT29 colon and 39.3 µM in the experiment on OVCAR-8 ovarian.
In the case of H-KIFKKFKTIIKKVWRIFGRF-NH2, the GI50 was 2.08 µM with SF-268 CNS; 2.95 µM with NCI/ADR-RES ovarian; 3.17 µM with SK-OV-3 ovarian; 2.63 µM in the experiment with SK-MEL-2 melanoma; 2.98 µM in the experiment with LOX IMVI melanoma; 2.09 µM with RXF 393 renal. For the same molecule, the GI50 with NCI-H23 lung is 2.44 µM; in the experiment with K-562 leukemia, 2.82 µM; with HT29 colon, 2.92 µM; with OVCAR-8 ovarian, 3.28 µM. In addition, the TGI was 5.45 µM in the experiment with SF-268 CNS; 9.57 µM in the experiment on NCI/ADR-RES ovarian; 7.39 µM with SK-OV-3 ovarian; 6.23 µM with SK-MEL-2 melanoma; greater than 100 µM in the experiment on LOX IMVI melanoma; 5.19 µM in the experiment with RXF 393 renal. Also, the TGI in the experiment on NCI-H23 lung was 7.51 µM; in the experiment with K-562 leukemia it was greater than 100 µM; in the experiment with HT29 colon, greater than 100 µM; in the experiment with OVCAR-8 ovarian, greater than 100 µM.
